Data set [1] can be described thus: Hydrolytic stability in aqueous phosphate buffer. The format is physicochemical. The settings on record: for remaining at 360 h / half-life: 0.02 m phosphate buffer; for remaining at 360 h: read-out: % Remaining After 15 Days; for half-life: 0.02 M phosphate. As to the method: Stability tests were performed on the compound of formula (II) to determine the sweetener's resistance to hydrolysis under varying conditions.
The tests were performed using solutions of (II) in aqueous phosphate buffer, 0.02 M, at pH 3.5 and 6.9. The solutions were incubated at ~43° C. (110° F.), ~54° C. (130° F.), and ~66° C., (150° F.) for up to 32 days.
Samples from the test solutions were withdrawn at regular intervals and analyzed by reversed-phase high performance liquid chromatography for remaining intact (II), using the following conditions:
Column: 25 cm×0.4 cm I.D. stainless steel packed with Lichrosorb RP-18, 5μ particle size.
Mobile phase: Acetonitrile/0.01 M phosphate buffer (155/845 v/v), pH 6.
Detection: UV absorbance at 220 nm (~2200 Å). Results were quantified by comparison with standard solutions kept frozen during the tests. Peak heights were measured for replicate injections.
By use of the Arrhenius equation, [formula] where k is the specific reaction velocity, T is the absolute temperature (°K.), A is the activation energy constant, t is time, and R is the gas law constant, change in the rate of a first-order chemical reaction with temperature can be calculated. The half-life of (II) at ambient temperature and pH 6.9 is estimated to be 760 days (>2 yrs).

The nature of data set [2]: Amide bond cleavage by rat intestine homogenate. Format: in vitro ADME. The settings on record: pH 7.0, 37° C., up to two hours, standardized to Aspartame/rat = 100. The text has this: (§1) This aspartic acid has the same caloric value as sugar, on a per-gram basis. These aspartic acid amide sweeteners are therefore not non-nutritive, but, rather, low calorie. In addition, the other molecular fragment released as a result of amide cleavage is frequently a non-physiological amine. It was therefore considered appropriate to gauge the rate of amide cleavage of compound (II) by digestive enzymes in evaluating both the calorigenic and the toxicologic potential of compounds of this invention.
(§2) Assays were performed in the following manner:
(§3) Aliquots of four mM solutions of test compounds in 100 mM potassium phosphate buffer solution at pH 7.0 were incubated at 37° C. (98.6° F.) for up to two hours with a standardized amount of animal intestine homogenate containing digestive enzymes. At the end of the incubation period, the enzymes were inactivated by boiling and the extent of amide bond hydrolysis was quantified by measurement of free L-aspartic acid in the solution. This was done by incubating a sample of the test solution with enzymes and substrates that convert L-aspartate to L-malate with concomitant oxidation of a pyridine nucleotide having a characteristic absorbance at 340 nanometers. The decrease in optical density at this wavelength is proportional to the amount of L-aspartate generated by amide bond hydrolysis.

Data set [3] can be described thus: Amide bond cleavage by monkey intestine homogenate. As to conditions: pH 7.0, 37° C., up to two hours, standardized to Aspartame/rat = 100. The format is in vitro ADME.
Source text: as §1, §2, §3

For data set [4] the following is noted: cited from earlier work; for taste: in words; for sweetness intensity: L-aspartic acid alkyl amides, Mazur et al. 1970.
The conditions of data set [5]: in words; cited from earlier work.
The conditions of data set [6]: cited from earlier work; for half-life: pH 4.
The conditions of data set [7]: in words; cited from earlier work. This is another data set of the same source.
Data set [8] in a line: Aqueous solubility and calculated maximum effective sweetening power. The format is physicochemical. As to conditions: for solubility / Calculated Maximum Effective Sweetening Power: approximate (~). As to the method: The solubility of compound (II) was determined in standard fashion. Water at pH 7 and 20° C. was used, except where indicated.
Because sweetness tends to plateau at higher concentrations of high intensity sweeteners, these calculations overestimate the actual sweetening power of the compounds of this invention.

Data set [9] in a line: Taste evaluation (human taste panel, comparison with sucrose standards). Format: in vivo, Male subjects. The settings on record: for taste / sweetness quality: in words. As for the experimental part:
The taste quality and sweetness intensity of the compounds of the present invention were determined by the following procedure.
Male subjects were selected at random from a group of about 20 persons who had previously been selected on the basis of proven tasting acuity, i.e., persons who could easily recognize the four basic tastes (sweet, sour, bitter and salty) and who were adept at quantifying their own physiological response numerically. The subjects were asked to taste and expectorate about 10 ml of a sample at about 22° C. containing dissolved test material. The subjects were then asked to compare the sweetness (and other taste qualities) of the test solution with four or five standard coded samples which contained increasing amounts of sucrose. Sweetness intensity of the unknown material was recorded by the subject making a mark on a coded closed linear scale at a point they considered equal in sweetness among the standards; interpolation between standards was encouraged. After completion of the panel, a four or five point (1-4 or 1-5, depending on the number of standards) numeric scale was superimposed on the coded linear scales to obtain numerical data; data were averaged and recorded to the nearest 0.25 unit. Equivalent sucrose sweetness was determined by referring to graphs of (w/v) sucrose concentration and standards versus a linear numeric scale.
Sweetness intensity was calculated by dividing the concentration (w/v) of perceived sweetness by the concentration (w/v) of test material required to produce that sweetness. Most taste comparisons were made in the range of 5-10% sucrose sweetness.
The five point scale with standards ranging from 1.37% (0.040 M) to 11.97% (0.35 M) sucrose usually sufficed to bracket the sweet intensity of a test sample. However, in the cases of beverage prototypes it was more meaningful to use prototype beverage solutions containing 2.5, 5.0, 10.0, 15.0 and 20.0% sucrose as standards. In all cases, evaluation of sweetness intensity in terms of sucrose equivalents was made with reference to graphs which related sucrose concentration and standard prototypes to the particular (arbitrary) scale units employed.
In tests in which taste quality was estimated, the subjects were asked to describe the initial taste and aftertaste in terms of percent sweet, sour, bitter, salty and "other", totalling 100%. In all tests, bottled spring water was used for rinsing between samples.

Data set [10] in a line: Resistance to hydrolysis by digestive enzymes (statement in words). The format is in vitro ADME, animal.
Source text: as §1, §2
as §3, with “hydrolysis. […]” for “hydrolysis.”

[11] abbreviates: pH 3.5, .02M Phosphate Buffer at 54° C.
Setting [12] is: pH 7, .02M Phosphate Buffer at 54° C.

The structures appear in SMILES notation. Values after ≈ are worked out from the molar mass of the structure shown. “Also recorded” adds a separate entry of the source. Like-named read-outs stand apart in the source and are kept apart here. Residues, ends and D or L forms follow the SMILES beside them.

Consider `CC(C)CCC(CO)NC(=O)[C@@H](N)CC(=O)O` (some centres unmarked), for which the amount remaining at 360 h in data set [1] (setting [11]) was 88%; in data set [1] (setting [12]) it was 72%.
Regarding `N[C@@H](CC(=O)O)C(=O)N[C@H](CO)Cc1ccccc1`, the “Relative rate of amide bond cleavage” value in data set [2] was determined as 19.
On the same count and under the same terms, under `CC(C)C[C@@H](CO)NC(=O)[C@@H](N)CC(=O)O` stands 11.
For `CC(C)CC[C@@H](CO)NC(=O)[C@@H](N)CC(=O)O`, the “Relative rate of amide bond cleavage” value amounted to 103 in data set [3] and 35 in data set [2].
For the compound `CCCCCC(CO)NC(=O)[C@@H](N)CC(=O)O` (some centres unmarked), the “Relative rate of amide bond cleavage” value in data set [2] was 35.
As for `CC(C)CCCC(C)NC(=O)[C@@H](N)CC(=O)O` (some centres unmarked), the “Relative rate of amide bond cleavage” value was 68 in data set [3] and 38 in [2].
As for `N[C@@H](CC(=O)O)C(=O)Nc1ccc2ccccc2c1`, in data set [2], the “Relative rate of amide bond cleavage” value worked out at 4.
Consider `CC(C)CC(C)NC(=O)[C@@H](N)CC(=O)O` (some centres unmarked) [1,3-dimethylbutyl], for which the taste entry in data set [4] is given as “bitter”.
`CCC(C)CC(C)NC(=O)[C@@H](N)CC(=O)O` (some centres unmarked) [1,3-dimethylpentyl]: in data set [4], the sweetness intensity is 1-2 X sucrose and the taste entry is recorded as “sweet”.
As for `CC(C)CCC(C)NC(=O)[C@@H](N)CC(=O)O` (some centres unmarked) [1,4-dimethylpentyl], in data set [4], the sweetness intensity was 50-100 X sucrose and the taste result is reported as “sweet”.
As to `CC(C)CCCC(C)N` (centres unmarked) [1,5-dimethylhexylamine], the pharmacological activity result in data set [5] is “vasopressor and myocardial stimulant activity”.
As to `CCCC(C)NC(=O)[C@@H](N)CC(=O)O` (some centres unmarked) [1-methylbutyl], the taste entry in [4] was “tasteless”.
Take `CCCCCCC(C)NC(=O)[C@@H](N)CC(=O)O` (some centres unmarked) [1-methylheptyl]: in [4], the sweetness intensity is recorded as 10 X sucrose and the taste entry is listed as “sweet”.
With `CCCCCC(C)NC(=O)[C@@H](N)CC(=O)O` (some centres unmarked) [1-methylhexyl], in [4], the sweetness intensity is reported as 20-50 X sucrose and the taste entry was “sweet”.
As for `CCCCC(C)NC(=O)[C@@H](N)CC(=O)O` (some centres unmarked) [1-methylpentyl], in [4], the sweetness intensity is on record as 30 X sucrose and the taste result is listed as “sweet”.
Consider `CC(C)CCCNC(=O)[C@@H](N)CC(=O)O` [4-methylpentyl], for which, in data set [4], the taste result is “tasteless”.
As to `COC(=O)[C@H](Cc1ccccc1)NC(=O)[C@@H](N)CC(=O)O` [Aspartame, L-aspartyl-L-phenylalanine methyl ester] (H-Asp-Phe-OMe), the results for the “Relative rate of amide bond cleavage” value in data set [3] and in data set [2] were 157 and 100, respectively. Besides, the half-life was 68 days in data set [6] (40° C.) and 16 days in data set [6] (55° C.). In addition, the “stability in aqueous media” value in data set [6] (in words) is “hydrolyzes rapidly in aqueous media to non-sweet compounds”. In addition, the “% Remaining After 15 Days” value in data set [6] (pH 3.5, 54° C., comparable data from literature) is 50%. Besides, the “% Remaining” value in data set [6] (pH 7, 54° C., at 1 day, comparable data from literature) is given as 0%. The taste result in [4] was “high quality sweetness; also recorded: free of unpleasant aftertaste”. Also, the “hydrolysis by gut enzymes” value in data set [7] is on record as “readily converted to L-aspartic acids by enzymes in the gut”.
Consider `CCCC(CC)NC(=O)[C@@H](N)CC(=O)O` (some centres unmarked) [Compound 1-ethylbutyl], for which the taste result in data set [4] is listed as “bitter”.
`CC(C)CC[C@H](NC(=O)[C@@H](N)CC(=O)O)[C@H](C)O` [Compound II, (S)-3-amino-4-[(S,S)-1-(1-hydroxyethyl)-4-methyl-pentylamino]-4-oxo-butyric acid]: the solubility is 30 to 40 mg/mL (≈ 115 to 154 mM) in data set [8] (Water, pH 7, 20° C.) and 30 to 40 mg/mL (≈ 115 to 154 mM) in [8] (lemonade, ditto mark). Also, the “Calculated Maximum Effective Sweetening Power” value in [8] (Water) is given as 180-240 g % sucrose equivalent; in [8] (lemonade), 255-340 g % sucrose equivalent. Besides, in data set [8] (in words), the solubility in water result was “surprisingly soluble in water”. In addition, the “Relative rate of amide bond cleavage” value in data set [3] and in data set [2] was 0 each time. Also, the half-life is 57 days in [1] (pH 3.5, 54° C., pH start 3.5 (end 4.3)); 17 days in data set [1] (pH 3.5, 66° C., pH start 3.5 (end 4.8)); 148 days in data set [1] (pH 6.9, 43° C., pH start 6.9 (end 6.8)); 64 days in [1] (pH 6.9, 54° C., pH start 6.9 (end 6.09)); 22 days in data set [1] (pH 6.9, 66° C., pH start 6.9 (end 7.5)). Also, the amount remaining at 360 h in [1] (setting [11]) was determined as 82%; in data set [1] (setting [12]), 86%. Further, the “stability in aqueous media” value in data set [1] (in words) was “stable in moderately alkaline, neutral and moderately acidic aqueous media”. The “reaction order of hydrolysis” value in data set [1] (log (% (II) intact) versus time) is given as “consistent with a reaction following first order kinetics”. Moreover, the “sweetness intensity” value is 85 × sucrose in [9] (Lemonade) and 60 × sucrose in [9] (Water). In addition, in [9] (at an 8% sucrose sweetness level), the “sweetness relative to sucrose” value is reported as “approximately 60 times”. Also, the “taste / sweetness quality” value in data set [9] is “sweetness quality comparable to sucrose; also recorded: sweet in both aqueous solution and granular form”; in data set [9] (listed as (S,S,S) compound) it was “sweet”. In data set [10], the “resistance to enzymatic hydrolysis” value was “resistant to enzymatic hydrolysis”.
`COc1ccc(CCC(=O)c2c(O)cc(O[C@@H]3O[C@H](CO)[C@@H](O)[C@H](O)[C@H]3O[C@@H]3O[C@@H](C)[C@H](O)[C@@H](O)[C@H]3O)cc2O)cc1O` [Neohesperidin dihydrochalcone]: the taste entry in data set [4] was “the sweetness is slow to develop and it has a licorice-like aftertaste”.
For `CCCCCCCNC(=O)[C@@H](N)CC(=O)O` [heptyl], in data set [4], the sweetness intensity is listed as 1-2 X sucrose and the taste entry is recorded as “sweet”.
Regarding `CCCCCCNC(=O)[C@@H](N)CC(=O)O` [hexyl], in data set [4], the sweetness intensity is reported as 1-2 X sucrose and the taste entry was “sweet”.
As to `O=C1NS(=O)(=O)c2ccccc21` [saccharin], in [4], the taste entry was “bitter aftertaste”.

In general, amount remaining refers to the share of the starting amount still present when the sample was taken. A word on the half-life: it is the time in which the quantity being followed falls by half. The solubility is the dissolved amount per volume that the medium holds.

(Values after patent publication US4423029A, “(S)-3-Amino-4-[(S,S)-1-(1-hydroxyethyl)alkyl amino]-4-oxo-butyric acid compounds suitable as non-nutritive sweetners” (The Procter & Gamble Company, priority 1981, dated 1983).)
